Laboratory results reported in patent publication US20120282331A1, “MAMMALIAN METABOLITES OF STEROIDS” (TOKAI PHARMACEUTICALS, INC., priority 2009, published 2012).

How the values were obtained:
[1] = Metabolic stability in pooled rat liver microsomes; format: in vitro ADME
Procedure: (§1) The depletion of the parent compound and the formation of metabolites in a time-dependent manner were explored in the presence or absence of an NADPH-generating system.
(§2) 3β-Hydroxy-17(1H-benzimidazol-1-yl)androsta-5,16-diene is incubated with pooled rat, dog, monkey and human liver microsomes at a protein concentration of 0.6 mg/mL. Incubation mixture contains either 0.1 M potassium phosphate buffer pH 7.4 or the incubation buffer. Following two minutes of pre-incubation of the incubation mixture at ˜37° C., the reaction is started by the addition of an NADPH-generating system (NADPH-GS) (1 mM NADP+, 5 mM glucose-6-phosphate, 1.0 unit/mL glucose-6-phosphate dehydrogenase) or 0.1 M phosphate buffer. At the appropriate time points (0, 15, 30, 60 and 120 minutes), reactions are stopped by the addition of appropriate stop solutions (0.1% formic acid in acetonitrile). The samples are centrifuged at approximately 10 000×g for 10 minutes at 20° C. An amount of supernatant from each sample is transferred to pre-labeled HPLC vials for analysis. Samples are analyzed by LC/MS to monitor the remaining parent compound or formation of potential metabolites. On each occasion, blank sample containing TOK-001 but without microsomes, is included.

[2] = Solubility in incubation medium; format: physicochemical; settings: presence versus absence of MgCl2/EDTA
Excerpt: However, the role of the divalent cation, MgCl2 in the activation of the CYP 450 activity is not well defined (Saito et al., 2006, Tamura et al., 1988).

[3] = Metabolic stability in pooled dog liver microsomes; format: in vitro ADME
Procedure: as §1, §2

[4] = Metabolic stability in pooled monkey liver microsomes; format: in vitro ADME; settings: EDTA and MgCl2; for depletion (negative = increase in concentration): absence of NADPH-GS
Procedure: as §1, §2

[5] = Metabolic stability in pooled human liver microsomes; format: in vitro ADME
Procedure: as §1, §2

[6] = 10 μM, EDTA and MgCl2, up to 60 minutes
[7] = 10 μM, EDTA and MgCl2, without NADPH-GS, 120 minutes
[8] = EDTA and MgCl2, up to 120 minutes

metabolic stability [1, 6]: metabolically stable | depletion of parent compound ([1]; 10 μM, EDTA and MgCl2, with NADPH-GS, 120 minutes): ~21% | change of parent compound in negative control [1, 7]: slight increase | metabolic stability [1, 8]: metabolically stable | recovery at 120 min, 10 μM ([1]; both sexes, rat, pooled rat liver microsomes, pH 7.4, 10 μM, 0.1 M phosphate buffer only, with NADPH-generating system, 120 minutes, read-out: recovery compared to the 0 minute incubation): ~86% | recovery at 60 min, 10 μM ([1]; both sexes, rat, pooled rat liver microsomes, 10 μM, phosphate buffer, 1 mM EDTA, 3 mM MgCl2, with NADPH-generating system, 60 minutes, read-out: recovery compared to the 0 minute incubation): ~85% | recovery at 120 min, 10 μM ([1]; both sexes, rat, pooled rat liver microsomes, 10 μM, phosphate buffer, 1 mM EDTA, 3 mM MgCl2, with NADPH-generating system, 120 minutes, read-out: recovery compared to the 0 minute): ~79% | depletion compared to the 0 minute incubation ([3]; 10 μM, 0.1 M phosphate buffer only, with NADPH-generating system, 120 minutes): ~25% | metabolic stability ([3]; 10 μM, 0.1 M phosphate buffer only, with NADPH-generating system, up to 60 minutes): metabolically stable | metabolic stability [3, 6]: metabolically stable | decrease of parent compound in negative control [3, 7]: ~21% | metabolic stability [3, 8]: metabolically stable | recovery at 60 min, 10 μM ([3]; both sexes, dog, pooled dog liver microsomes, 10 μM, phosphate buffer, 1 mM EDTA, 3 mM MgCl2, with NADPH-generating system, 60 minutes, read-out: recovery compared to the 0 minute): ~85% | depletion (negative = increase in concentration) ([4]; 10 μM, 30 minutes): ~−14% | depletion (negative = increase in concentration) ([4]; 10 μM, 120 minutes): ~−12% | depletion of parent compound ([4]; 10 μM, with NADPH-GS, 30 minutes): ~16% | metabolic stability ([4]; up to 120 minutes): less stable | depletion of parent compound ([5]; 10 μM, EDTA and MgCl2, absence of NADPH-GS): ~7% | depletion of parent compound ([5]; 10 μM, EDTA and MgCl2, with NADPH-generating system, over 120 minutes): ≤ 11% | metabolized (depletion) ([5]; 0.1 M phosphate buffer only, NADPH and time-dependent): ≥ 50% | metabolic stability [5, 8]: metabolically stable | recovery at 120 min, 10 μM ([5]; both sexes, human, pooled human liver microsomes, 10 μM, phosphate buffer, 1 mM EDTA, 3 mM MgCl2, with NADPH-generating system, over 120 minutes): ~89%
Structure (SMILES): C[C@]12CC[C@H](O)CC1=CC[C@@H]1[C@@H]2CC[C@]2(C)C(n3cnc4ccccc43)=CC[C@@H]12 [Compound (1), 3β-Hydroxy-17(1H-benzimidazol-1-yl)androsta-5,16-diene]
dissolution in incubation medium [2]: slightly better in the absence of MgCl2/EDTA
